Measurements: patent publication US7045516B1, “Benzoxazole derivatives and drugs containing the same as the active ingredient” (Koichi Shudo, priority 1998, dated 2006)
Like-named read-outs stand apart in the source and are kept apart here.

What was measured:
5-HT3 receptor = target: T1, 5-HT3 receptor (Cavia porcellus, UniProt O70212); test: Test for 5-HT3 receptor activating action and antagonism, guinea pig ileum longitudinal muscle contraction; type: cell-based; details: for EC50: negative logarithm of molar concentration giving 50% maximum contraction, read-out: Activating action pD2 (converted); for Activating action i.a.: ratio of maximum contraction by compound relative to maximum contraction with 10 μM 5-HT (defined as 1); for inhibition at 10 µM: inhibitory ratio of contraction by 10 μM 5-HT in sample treated beforehand with 10 μM compound, guinea pig ileum longitudinal muscle
T1 construct: From ileum of Hartley male guinea pigs (500 g to 800 g) longitudinal muscle samples of about 20 mm were prepared; from tissue; host or cells: guinea pig ileum longitudinal muscle
T1 sequence (O70212 20-490): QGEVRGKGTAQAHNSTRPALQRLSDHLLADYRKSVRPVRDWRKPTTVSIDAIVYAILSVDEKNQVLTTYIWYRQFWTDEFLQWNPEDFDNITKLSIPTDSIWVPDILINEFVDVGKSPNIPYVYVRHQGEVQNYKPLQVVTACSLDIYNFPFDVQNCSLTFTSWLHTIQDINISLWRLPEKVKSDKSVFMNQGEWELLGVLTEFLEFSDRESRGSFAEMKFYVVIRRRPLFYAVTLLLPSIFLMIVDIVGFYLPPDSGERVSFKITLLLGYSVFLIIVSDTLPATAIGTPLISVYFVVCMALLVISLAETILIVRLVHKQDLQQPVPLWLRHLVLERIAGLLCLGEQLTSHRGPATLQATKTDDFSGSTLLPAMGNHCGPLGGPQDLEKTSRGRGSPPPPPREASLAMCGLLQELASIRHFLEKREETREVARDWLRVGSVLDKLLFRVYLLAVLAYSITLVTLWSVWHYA
Procedure: From ileum of Hartley male guinea pigs (500 g to 800 g) longitudinal muscle samples of about 20 mm were prepared. The samples were suspended at a resting tension of about 0.5 g in Magnus tubes, and isometric contraction reaction was measured. The samples were treated beforehand twice with 0.3 μM of 5-HT for 1 hour to desensitize the 5-HT4 receptors, and then given with 5-HT at a concentration of 0.1 to 30 μM to examine dose-dependent contraction reaction via the 5-HT3 receptors. […] The index of the 5-HT3 receptor activating action, i.a., is represented as a ratio of the maximum reaction obtained by each compound relative to the maximum contraction reaction obtained with 10 μM of 5-HT, which is defined to be 1. The index of strength of binding with the 5-HT3 receptor, pD2, is represented with a negative logarithmic value of a concentration (molar concentration) that gave 50% maximum contraction reaction for each compound. As for the antagonistic activity of each compound against the 5-HT3 receptor, inhibitory ratio was calculated, which represents a ratio of contraction obtained by applying 10 μM of 5-HT to a sample treated beforehand with 10 μM of each compound relative to the contraction obtained by applying 10 μM of 5-HT to an untreated sample.

[1] = tested on: rat diarrhea under restriction stress; test: Inhibitory action for rat diarrhea under restriction stress; type: in vivo; details: oral, 30 min before restraint, male Wistar rats, 3 hours, nonlinear least square method
Procedure: L. Williams et al. [GASTROENTEROLOGY, 94, 611–621 (1988)] was determined as follows, and the results were analyzed by the nonlinear least square method. 8-Week old male Wistar rats were starved from the evening of the day before the test. Each test compound was orally administered to the rats. After 30 minutes, the rats were constrained by binding of their fore-limbs and hind-limbs with wires. The rats were left in individual gages on white sheets under luminescent lamps for 3 hours. […] The test was performed with groups of rats each consisting of 8 rats.

[2] = tested on: large bowel transportation ability of normal mice; test: Effect on large bowel transportation ability of normal mice (glass bead excretion); type: in vivo, mouse; details: ddY male mice, bead inserted after 30 minutes
Procedure: G. et al. [Drug Dev. Res., 9, 241-247, (1986)] was determined as follows. Each test compound was orally administered to 5- to 7-week old ddY male mice starved for about 4 hours. […] After the insertion of the glass bead, time (second) from the insertion to excretion of the bead from the anus was measured, and the time was used as an index of large bowel transportation ability. The test was performed by using groups of mice each consisting of 9 to 11 mice, and all of the procedures were performed under no anesthesia.

Reverse mutation test = test: Reverse mutation test
Procedure: A reverse mutagenicity test was performed using the compound of Example 1 (b) of the present specification, hydrochloride of 5,7-dimethyl-2-(1-piperazinyl)benzoxazole (C), hydrochloride of 5-chloro-7-methyl-2-(4-methyl-1-piperazinyl)benzoxazole (D), and hydrochloride of 5-chloro-7-methyl-2-(4-methyl-1-homopiperazinyl) benzoxazole (E) (compounds disclosed in Japanese Patent Publication (KOKAI) No. 10-29987/1998), and the compound described in Reference Example 4 of the present specification, i.e., hydrochloride of 5-chloro-7-methyl-2-(1-piperazinyl) benzoxazole (F) according to the method of T. Matsushima et al. (Noropoth K. H., Springer, Berlin-Heidelberg-New York, “Short-Term Test Systems For Detecting Carcinogens”, pp. 273–285, 1980) referred by the guideline 471 of ORGANIZATION FOR ECONOMIC CO-OPERATION AND DEVELOPMENT.

[3] = Metabolic activity in human liver, in vitro system with S9 fraction; type: in vitro ADME; details: 50 μmol/L test compound, 1 mg/mL human liver S9, NADPH production system, 37 °C, 15 minutes
Procedure: The test was performed in an in vitro system utilizing human liver S9 fraction in the presence of an NADPH production system described below. A reaction mixture of a total volume of 125 μL containing components at given final concentrations was prepared (50 μmol/L of test compound, 6 mmol/L of MgCl2.6H2O, 1 mmol/L of β-NADP^+, 10 mmol/L of glucose-6-phosphate (G-6-P), 0.7 U/mL of G-6-P dehydrogenase, 100 mmol/L of potassium phosphate (pH 7.4), 0.1 mmol/L of EDTANa2, and 1 mg/mL of human liver S9), and incubated at 37 C.° for 15 minutes. The reaction was stopped by the addition of 125 μL of N,N-dimethylformamide containing a substance for internal standard. The reaction mixture was centrifuged (2,000×g, 10 minutes), and the supernatant was subjected to HPLC analysis to determine the concentration of unchanged substance. Consumed amount was calculated from the concentration of unchanged substance, and the metabolic rate was represented as activity per unit amount of protein.

[4] = method of Matsushima et al., OECD guideline 471

EC50 (5-HT3 receptor)	Activating action i.a. (5-HT3 receptor)	inhibition at 10 µM (5-HT3 receptor)	SMILES	other results
1700 nM	0.32		c1ccc2oc(N3CCCNCC3)nc2c1 [A, 2-(1-homopiperazinyl)benzoxazole, reference compound]	
21.4 nM	0.17	98%	Cc1cc(Cl)cc2nc(N3CCCN(C)CC3)oc12 [E, 5-chloro-7-methyl-2-(4-methyl-1-homopiperazinyl) benzoxazole, reference compound]	
295 nM	0.36	88%	COc1cc(Cl)cc2nc(N3CCCNCC3)oc12 [Example 2, 5-Chloro-2-(1-homopiperazinyl)-7-methoxybenzoxazole]	
191 nM	0.08	88%	Cc1cc2oc(N3CCCNCC3)nc2cc1Cl [Example 3, 5-Chloro-2-(1-homopiperazinyl)-6-methylbenzoxazole]	
17.8 nM		89%	CCc1cc(Cl)cc2nc(N3CCCNCC3)oc12 [Example 4, 5-Chloro-7-ethyl-2-(1-homopiperazinyl) benzoxazole]	
3980 nM	0.35	90%	CC(=O)Nc1cc(Cl)cc2nc(N3CCCNCC3)oc12 [Example 6, 7-Acetamino-5-chloro-2-(1-homopiperazinyl)benzoxazole]	
2000 nM	0.31	83%	CC(C)(C)OC(=O)Nc1cc(Cl)cc2nc(N3CCCNCC3)oc12 [Example 7, 7-(tert-Butyloxycarbonylamino)-5-chloro-2-(1-homopiperazinyl)benzoxazole]	
437 nM	0.55	83%	Cl.Nc1cc(Cl)cc2nc(N3CCCNCC3)oc12 [Example 8, 7-Amino-5-chloro-2-(1-homopiperazinyl) benzoxazole hydrochloride]	
56.2 nM	0.13	97%	Clc1cc(Cl)c2oc(N3CCCNCC3)nc2c1 [Example 9, 5,7-Dichloro-2-(1-homopiperazinyl) benzoxazole]	
56.2 nM	0.09	96%	Cc1c(Cl)cc2nc(N3CCCNCC3)oc2c1Cl [Example 10, 5,7-Dichloro-2-(1-homopiperazinyl)-6-methylbenzoxazole]	
35.5 nM	0.14	89%	Cc1c(Cl)cc2nc(N3CCCNCC3)oc2c1C [Example 11, 5-Chloro-2-(1-homopiperazinyl)-6,7-dimethylbenzoxazole]	
191 nM	0.05	88%	Clc1cc(NCc2ccccc2)c2oc(N3CCCNCC3)nc2c1 [Example 12, 7-(Benzylamino)-5-chloro-2-(1-homopiperazinyl) benzoxazole]	
3390 nM	0.13	46%	CS(=O)(=O)Nc1cc(Cl)cc2nc(N3CCCNCC3)oc12.Cl [Example 14, 5-Chloro-7-methanesulfonylamino-2-(1-homopiperazinyl) benzoxazole hydrochloride]	
5620 nM	0.10	15%	CC(C)C(=O)Nc1cc(Cl)cc2nc(N3CCCNCC3)oc12.Cl [Example 16, 5-Chloro-7-isobutyrylamino-2-(1-homopiperazinyl) benzoxazole hydrochloride]	
			CN1C2CCCC1CC(NC(=O)c1nn(C)c3ccccc13)C2 (stereo not drawn) [G, Granisetron]	ED50 ([1]; Rattus norvegicus): 0.025 mg/kg; time from insertion to excretion of glass bead ([2]; dose 3 mg/kg oral): 206.44 s; time from insertion to excretion of glass bead ([2]; dose 10 mg/kg oral): 258.47 s; time from insertion to excretion of glass bead ([2]; dose 30 mg/kg oral): 475.93 s
			Cc1cc(Cl)cc2nc(N3CCN(C)CC3)oc12.Cl [Hydrochloride of D, hydrochloride of 5-chloro-7-methyl-2-(4-methyl-1-piperazinyl) benzoxazole]	reverse mutagenicity (Reverse mutation test; [4]): negative; Metabolic activity [3]: 0.87 nmol/min/mg protein
			Cc1cc(Cl)cc2nc(N3CCCN(C)CC3)oc12.Cl [Hydrochloride of E, hydrochloride of 5-chloro-7-methyl-2-(4-methyl-1-homopiperazinyl)benzoxazole]	ED50 value [1]: 0.0041 mg/kg; reverse mutagenicity (Reverse mutation test): negative; time from insertion to excretion of glass bead ([2]; dose 3 mg/kg oral): 271.91 s; time from insertion to excretion of glass bead ([2]; dose 10 mg/kg oral): 318.95 s; time from insertion to excretion of glass bead ([2]; dose 30 mg/kg oral): 248.56 s
			Cc1cc(Cl)cc2nc(N3CCNCC3)oc12.Cl [hydrochloride of Compound F, hydrochloride of 5-chloro-7-methyl-2-(1-piperazinyl) benzoxazole]	reverse mutagenicity (Reverse mutation test; [4]): positive

SMILES	EC50 (5-HT3 receptor)	Activating action i.a. (5-HT3 receptor)	inhibition at 10 µM (5-HT3 receptor)	other results
Cc1cc(C)c2oc(N3CCN(C)CC3)nc2c1 [B, 5,7-dimethyl-2-(4-methyl-1-piperazinyl) benzoxazole, reference compound]	479 nM	0.62		
Cc1cc(C)c2oc(N3CCNCC3)nc2c1 [C, 5,7-dimethyl-2-(1-piperazinyl)benzoxazole, reference compound]	70.8 nM	0.12	91%	
Cc1cc(Cl)cc2nc(N3CCN(C)CC3)oc12 [D, 5-chloro-7-methyl-2-(4-methyl-1-piperazinyl)benzoxazole, reference compound]	162 nM	0.27	94%	
Cc1cc(Cl)cc2nc(N3CCCNCC3)oc12 [Example 1 (a), 5-Chloro-2-(1-homopiperazinyl)-7-methylbenzoxazole]	33.1 nM	0.12	95%	
Cc1cc(Cl)cc2nc(N3CCNCC3)oc12 [F, 5-chloro-7-methyl-2-(1-piperazinyl)benzoxazole, reference compound]	27.5 nM	0.14	90%	
